These results are taken from patent US8586618B2, “Furanone compounds and lactam analogues thereof” (Biosignal Limited, priority 2006, dated 2013).

As usually defined, the melting point is the temperature of the solid-liquid transition.

For data set [1], the system named is LasR quorum sensing system. Description: LasR assay (unstable gfp fused to elastase promoter). Type of data set: cell-based, Pseudomonas aeruginosa. As to conditions: for inhibition at 50 µg/mL / inhibition at 25 µg/mL / inhibition at 100 µg/mL: Pseudomonas aeruginosa; for inhibition at 50 µg/mL: read-out: LasR % inhibition at 50 μg/ml; for inhibition at 25 µg/mL: read-out: LasR (% inhibition at 25 ug/ml compound); for LasR % inhibition at 100 μg/ml: 100 μg/ml compound; for inhibition at 100 µg/mL: read-out: LasR % inhibition at 100 μg/ml. On the procedure: Compounds of the present invention were also assayed using a LasR assay. The LasR assay provides a measurement of quorum sensing inhibition activity. […] In the LasR assay, an unstable gfp has been fused to the elastase promoter, so that the amount of Gfp is regulated by the QS system. The plasmid is put into Pseudomonas aeruginosa which makes its own AHL signals. The assay is performed by adding the compounds to be tested to the system at the beginning of the experiment, at different concentrations. Gfp expression is measured at different times during growth, ending at the 24 h time point. The percentage fluorescence was determined at the time point when the fluorescence reached its maximum in the control, usually around 11-12 h after inoculation.

Data set [2] deals with V. fischeri luxRI system (AHL quorum sensing, gfp fused to luxI promoter). Description: N-acylated homoserine lactone (AHL) quorum sensing assay, GFP reporter strain. The following applies: for ID40 at 3 nM OHHL: value in brackets; for AIC40: inhibition index: slope of ID40 vs AHL concentration, lower is better. In kind it is cell-based, E. coli. The procedure:
Compounds of the present invention were compared to compounds of the prior art in order using an AHL-quorum sensing assay which utilises a reporter strain that expresses Green Fluorescent Protein (GFP) in the presence of AHL signals. The assay is performed by measuring GFP output in the presence of the compound to be measured and comparing the output to a control. By using multiple samples at varying concentrations of compound and AHL, an inhibition index of compound activity can be generated. The inhibition index used in the present example is the relative amount of compound required to reduce GFP expression to 40% of the control. The inhibition index is termed AIC40. Lower values of AIC40 represent better inhibitors of the AHL quorum sensing system.
The reporter strain of bacterium used in this assay is E. coli into which the V. fischeri luxRI system has been engineered. A gfp gene is fused to the QS controlled luxI promoter as is described in (Andersen et al., 2001, and Andersen et al, 1998).
Measurement of AIC40 (ID40 at 3 nM OHHL)
Determination of the activity of compounds using the E. coli based luxRI construct was performed as follows.
In a 15 mL plastic tube, mix 3 mL of o.n. culture of the lux reporter strain with 12 mL fresh medium, incubate at 37° C. Label six tubes, 10, 20, two 50 and two 100. To each of the tubes, add OHHL (3-oxohexanoyl homoserine lactone) to a final concentration of 10, 20, 50, or 100 nM respectively in the AB medium (add enough medium to distribute across the appropriate number of wells). To the first row of the microplate (row A), add 200 ul of the OHHL/AB mixture. To the remaining rows (B-H) add 100 ul of the OHHL/AB mixture. To the first row (A) add compounds to be tested to the 200 ul mixture of OHHL/AB. Make a dilution series in the first 7 rows by transferring 100 μL from wells in row 1 to wells in row 2 and so on. Discard the remaining 100 μL from row 7. Add 100 μL diluted lux monitor to each well. Incubate the plate 2 hours at 37° C. and measure green fluorescence using the “Victor” plate reader.
Calculate ID40 for each column. To do this, calculate the relative activity in each well. […] Make a plot for each concentration of OHHL vs. the range of compound concentrations used. Calculate the amount of compound needed to lower the relative activity to 40%, this is termed inhibiting dose 40%, ID40. For each compound an inhibition index, AIC40, is found as follows: plot ID40 against its respective AHL concentration; AIC40 is the slope of the best straight line through the plotted points and origin.

The test system of a further data set is E. coli biofilm. Description: Inhibition of biofilm formation, Petri dish model, E. coli. As to conditions: 48 h exposure. In kind it is cell-based. The procedure: (§1) Compounds were run in a Petri dish model—where the cells of E. coli or Pseudomonas aeruginosa were exposed to the compound for 48 h. The amount of biofilm was determined by combining image data of the XY (surface cover in one plane) and XZ (depth). The controls gave good biofilm cover and some structure formation.

The test system of data set [3] is Pseudomonas aeruginosa biofilm. Nature of the data set: Inhibition of biofilm formation, Petri dish model, Pseudomonas aeruginosa. The following applies: 10 μg/mL, 48 h exposure. Type of data set: cell-based. The procedure: as §1
Setting [4] is: amount lowering GFP activity to 40%.

`O=C1C=C(c2cccc(C(F)(F)F)c2)CO1` [Compound 8, 4-(3′-Trifluoromethylphenyl)furan-2(5H)-one] had a melting point of 124 to 125 °C. In data set [1], the inhibition at 50 µg/mL turned out to be 42.2% and the inhibition at 25 µg/mL was 22%.
For `O=C1C=C(Br)CO1` [Compound 11, 4-Bromofuran-2(5H)-one], the melting point lay within 72 to 74 °C.
As for “(Z)-5-(4-(trifluoromethyl)benzylidene)furan-2(5H)-one [Compound 29]”, in data set [1], the “LasR (% inhibition at 25 ug/ml compound)” value is recorded as 15.8% and the “LasR % inhibition at 100 μg/ml” value stood at 38.4%.
The molecule `O=C1C=C(c2ccccc2)/C(=C/c2cccc(C(F)(F)F)c2)O1` [Compound 13] yielded a melting point of 108 to 110 °C.
Regarding “(Z)-4-(3′-(Trifluoromethyl)phenyl)-5-(3″-(trifluoromethyl)benzylidene)furan-2(5H)-one [Compound 23]”, the “ID40 at 3 nM OHHL” value in data set [2] (setting [4]) is listed as 22.1. For the same molecule, the AIC40 in data set [2] stood at 4.64. Besides, in data set [1], the “LasR (% inhibition at 25 ug/ml compound)” value turned out to be 23% and the “LasR % inhibition at 100 μg/ml” value worked out at 46.4%.
`O=C1C=C(c2ccc(F)cc2F)CO1` [Compound 1, 4-(2′,4′-Difluorophenyl)furan-2(5H)-one]: the “ID40 at 3 nM OHHL” value in data set [2] (setting [4]) is recorded as 17.83. In data set [2], this molecule returned an AIC40 of 7.6.
As for “(Z)-5-(4-fluorobenzylidene)furan-2(5H)-one [Compound 28]”, in data set [1], the “LasR (% inhibition at 25 ug/ml compound)” value is 13% and the “LasR % inhibition at 100 μg/ml” value amounted to 53%.
Consider `O=C1C=C(c2ccc(Br)cc2)CN1` [Compound 35, 4-(4′-Bromophenyl)-pyrrol-2(5H)-one], for which the melting point was 233 to 235 °C (dec.).
With `O=C1C=C(c2ccc(F)cc2)CO1` [Compound 2, 4-(4′-Fluorophenyl)furan-2(5H)-one], the “ID40 at 3 nM OHHL” value in data set [2] (setting [4]) turned out to be 39.4. In addition, the AIC40 in data set [2] was 14.39.
`O=C1C=C(c2ccc(C(F)(F)F)cc2)CO1` [Compound 3, 4-(4′-Trifluoromethylphenyl)furan-2(5H)-one]: the “ID40 at 3 nM OHHL” value in data set [2] (setting [4]) was found to be 4.37. In addition, the AIC40 in data set [2] worked out at 0.77. Moreover, the inhibition at 25 µg/mL in data set [1] was 22%.
Turning to `O=C1C=C(c2ccsc2)CO1` [Compound 14, 4-(Thiophen-3′-yl)furan-2(5H)-one], the melting point was in the range of 130.5 to 132 °C. In data set [2], the “ID40 at 3 nM OHHL” value came out at 60 µM and the AIC40 came to 4.9. Moreover, the inhibition at 25 µg/mL in data set [1] stood at 15%.
Turning to `O=C1C=C(c2ccccc2C(F)(F)F)CO1` [Compound 9, 4-(2′-Trifluoromethylphenyl)furan-2(5H)-one], the melting point lay within 49 to 50 °C.
Consider `Cn1cc(C2=CC(=O)OC2)cn1` [Compound 12, 4-(N-Methylpyrazol-4′-yl)furan-2(5H)-one], for which the melting point is 181 to 182 °C. Further, the inhibition at 50 µg/mL in data set [1] is 22.9%.
In turn, `Cc1noc(C)c1C1=CC(=O)OC1` [Compound 7, 4-(3′,5′-Dimethylisoxazol-4′-yl)furan-2(5H)-one] displayed a melting point of 101 to 103 °C.
As for `O=C1C=C(Br)/C(=C/c2ccsc2)O1` [Compound 25], in data set [1], the inhibition at 100 µg/mL turned out to be 78% and the inhibition at 25 µg/mL is 20%.
Take `O=C1C=C(c2cccs2)CO1` [Compound 6, 4-(Thiophen-2′-yl)furan-2(5H)-one]: the melting point fell in the range of 94 to 96.5 °C. For the same molecule, the “% biofilm” value in the data set with E. coli biofilm (25 μg/mL) was 87.7%. Moreover, the “% biofilm” value in the data set on E. coli biofilm (40 μg/mL) was found to be 97%. The “ID40 at 3 nM OHHL” value in data set [2] (setting [4]) stood at 58.7. In data set [2], the AIC40 is listed as 24.6. Besides, the inhibition at 25 µg/mL in data set [1] is 10%. Moreover, the “% biofilm” value in data set [3] is 77%.
For the molecule `O=C1C=C(c2ccc(OC(F)(F)F)cc2)/C(=C/c2ccc(OC(F)(F)F)cc2)O1` [Compound 21, (Z)-4-(4′-(Trifluoromethoxy)phenyl)-5-(4″-(trifluoromethoxy)benzylidene)furan-2(5H)-one], the “ID40 at 3 nM OHHL” value in data set [2] (setting [4]) was found to be 148. The AIC40 in data set [2] is on record as 4.4. Besides, in data set [1], the inhibition at 100 µg/mL stood at 47% and the inhibition at 25 µg/mL came to 14.7%.
`O=C1C=C(c2ccc(C(F)(F)F)cc2)/C(=C/c2ccc(C(F)(F)F)cc2)O1` [Compound 17, (Z)-4-(4′-(trifluoromethyl)phenyl)-5-(4″-(trifluoromethyl)benzylidene)furan-2(5H)-one] returned a melting point of 127.5 to 129 °C.
In turn, `O=C1C=C(c2ccc(F)cc2)CN1` [Compound 36, 4-(4′-Fluorophenyl)-1H-pyrrol-2(5H)one] yielded a melting point of 190 °C.
As to `O=C1C=C(Br)/C(=C/c2cccs2)O1` [Compound 26], in data set [1], the inhibition at 100 µg/mL was 76% and the inhibition at 25 µg/mL was 30%.
In the case of `O=C1C=C(c2cccc(C(F)(F)F)c2)/C(=C/c2cccc(C(F)(F)F)c2)O1` [Compound 24], in data set [1], the inhibition at 100 µg/mL amounted to 35% and the inhibition at 25 µg/mL came out at 19%.
In the case of `O=C1C=C(c2ccc(C(F)(F)F)cc2C(F)(F)F)CO1` [Compound 15, 4-(2′,4′-Bis(trifluoromethyl)phenyl)furan-2(5H)-one], the melting point is 116 to 117 °C.
Regarding `CC1OC(=O)C=C1c1ccccc1` (centres unmarked) [Compound 27, 5-methyl-4-phenyl-2(5H)furanone], in data set [1], the inhibition at 100 µg/mL is 57% and the inhibition at 25 µg/mL worked out at 9%.
Take `O=C1C=C(c2ccc(OC(F)(F)F)cc2)CO1` [Compound 5, 4-(4′-Trifluoromethoxyphenyl)furan-2(5H)-one]: the melting point was 122 to 123 °C. Moreover, the “ID40 at 3 nM OHHL” value in data set [2] (setting [4]) is reported as 11.37. Besides, in data set [2], the AIC40 amounted to 5.9. Besides, in data set [1], the inhibition at 50 µg/mL amounted to 43.2% and the inhibition at 25 µg/mL is 19.3%.
